According to PubChem BioAssay AID248 (DTP/NCI, 2004):
Values joined by “and” are separate entries in the source; they are usually repeats but may differ in a detail not shown here. Equal entries are not always repeated. Toxic doses and inconclusive results are not listed. Rule as the data show it: active = T/C of 150% or more; inactive = T/C below 125%.

Test system: L1210 leukemia ip in BDF1 mice, survival T/C
Experiment: NCI In Vivo Anticancer Drug Screen. Data for tumor model L1210 Leukemia (intraperitoneal) in B6D2F1 (BDF1) mice
Conditions: endpoint: mean survival time, higher = longer survival
How it was run: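 In this screen, tumor-bearing mice given compound are compared to those given vehicle, and their survival values are reported as a treated-to-control quotient.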

[1] = dose: 50.0 mg/kg/injection, schedule: Q04DX003 (ip), vehicle: Klucel (hydroxypropylcellulose) (HPC)
[2] = dose: 100.0 mg/kg/injection, schedule: Q01DX001 (ip), vehicle: Klucel (hydroxypropylcellulose) (HPC)
[3] = dose: 100.0 mg/kg/injection, schedule: Q04DX003 (ip), vehicle: Klucel (hydroxypropylcellulose) (HPC)
[4] = dose: 200.0 mg/kg/injection, schedule: Q01DX001 (ip), vehicle: Klucel (hydroxypropylcellulose) (HPC)
[5] = dose: 200.0 mg/kg/injection, schedule: Q04DX003 (ip), vehicle: Klucel (hydroxypropylcellulose) (HPC)
[6] = dose: 400.0 mg/kg/injection, schedule: Q01DX001 (ip), vehicle: Klucel (hydroxypropylcellulose) (HPC)
[7] = dose: 100.0 mg/kg/injection, schedule: Q01DX001 (ip), vehicle: saline
[8] = dose: 200.0 mg/kg/injection, schedule: Q01DX001 (ip), vehicle: saline
[9] = dose: 400.0 mg/kg/injection, schedule: Q01DX001 (ip), vehicle: saline
[10] = dose: 100.0 mg/kg/injection, schedule: Q01DX009 (ip), vehicle: saline with Tween-80
[11] = dose: 100.0 mg/kg/injection, schedule: Q04DX003 (ip), vehicle: saline with Tween-80
[12] = dose: 200.0 mg/kg/injection, schedule: Q01DX009 (ip), vehicle: saline with Tween-80
[13] = dose: 200.0 mg/kg/injection, schedule: Q04DX003 (ip), vehicle: saline with Tween-80
[14] = dose: 400.0 mg/kg/injection, schedule: Q04DX003 (ip), vehicle: saline with Tween-80
[15] = dose: 100.0 mg/kg/injection, schedule: Q01DX009 (ip), vehicle: Klucel (hydroxypropylcellulose) (HPC)
[16] = dose: 200.0 mg/kg/injection, schedule: Q01DX009 (ip), vehicle: Klucel (hydroxypropylcellulose) (HPC)
[17] = dose: 100.0 mg/kg/injection, schedule: Q01DX009 (ip), vehicle: saline
[18] = dose: 100.0 mg/kg/injection, schedule: Q04DX003 (ip), vehicle: saline
[19] = dose: 200.0 mg/kg/injection, schedule: Q01DX009 (ip), vehicle: saline
[20] = dose: 200.0 mg/kg/injection, schedule: Q04DX003 (ip), vehicle: saline
[21] = dose: 400.0 mg/kg/injection, schedule: Q04DX003 (ip), vehicle: saline
[22] = dose: 100.0 mg/kg/injection, schedule: Q01DX001 (ip), vehicle: carboxymethylcellulose (CMC)
[23] = dose: 200.0 mg/kg/injection, schedule: Q01DX001 (ip), vehicle: carboxymethylcellulose (CMC)
[24] = dose: 400.0 mg/kg/injection, schedule: Q01DX001 (ip), vehicle: carboxymethylcellulose (CMC)
[25] = dose: 100.0 mg/kg/injection, schedule: Q04DX003 (ip), vehicle: other
[26] = dose: 200.0 mg/kg/injection, schedule: Q04DX003 (ip), vehicle: other
[27] = dose: 25.0 mg/kg/injection, schedule: Q04DX003 (ip), vehicle: Klucel (hydroxypropylcellulose) (HPC)
[28] = dose: 50.0 mg/kg/injection, schedule: Q01DX009 (ip), vehicle: Klucel (hydroxypropylcellulose) (HPC)

Measured: T/C

O=c1c2ccccc2[nH]c2ccccc12
inactive: [1] 103 % of control | [2] 95 % of control | dose: 100.0 mg/kg/injection, schedule: Q01DX Z (ip), vehicle: carboxymethylcellulose (CMC) 96 % of control | [3] 101 % of control | [4] 98 % of control | dose: 200.0 mg/kg/injection, schedule: Q01DX Z (ip), vehicle: carboxymethylcellulose (CMC) 103 % of control | [5] 106 % of control and 97 % of control | [6] 95 % of control | dose: 400.0 mg/kg/injection, schedule: Q01DX Z (ip), vehicle: carboxymethylcellulose (CMC) 105 % of control | dose: 400.0 mg/kg/injection, schedule: Q04DX003 (ip), vehicle: Klucel (hydroxypropylcellulose) (HPC) 103 % of control and 96 % of control

Nc1ccc(Cl)nc1
inactive: dose: 50.0 mg/kg/injection, schedule: Q01DX001 (ip), vehicle: saline 98 % of control | [7] 98 % of control | [8] 102 % of control | [9] 96 % of control

COc1ccccc1NC(=O)Nc1cccc(C(C)=O)c1
inactive: [10] 93 % of control | [11] 97 % of control | [12] 90 % of control | [13] 100 % of control | dose: 400.0 mg/kg/injection, schedule: Q01DX009 (ip), vehicle: saline with Tween-80 100 % of control | [14] 96 % of control

O=C(O)CSc1nc2ccccc2s1
inactive: [10] 107 % of control

O=C(/C=C/c1ccccc1)NN1CCCCC1
inactive: [15] 94 % of control | [3] 100 % of control | [16] 110 % of control | [5] 98 % of control

CC1(C)Cc2cc3ccccc3nc2-c2ccccc21
inactive: dose: 25.0 mg/kg/injection, schedule: Q01DX009 (ip), vehicle: saline with Tween-80 97 % of control | dose: 50.0 mg/kg/injection, schedule: Q01DX009 (ip), vehicle: saline with Tween-80 97 % of control | [10] 94 % of control

Cc1ccc2c(c1)nc1c3ccccc3nc(-c3ccccc3N)n21
inactive: [10] 89 % of control | [11] 104 % of control | [12] 87 % of control | [13] 91 % of control | [14] 104 % of control

Cc1c2ccccc2nc2ccccc12
inactive: [7] 106 % of control | [8] 98 % of control | [9] 101 % of control

O=C(O)C1CC=CCC1C(=O)O (configuration not stated)
inactive: dose: 100.0 mg/kg/injection, schedule: Q01DX005 (ip), vehicle: saline 95 % of control | [17] 108 % of control | [11] 97 % of control | [18] 94 % of control | dose: 200.0 mg/kg/injection, schedule: Q01DX005 (ip), vehicle: saline 98 % of control | [19] 118 % of control | [13] 95 % of control | [20] 91 % of control | dose: 400.0 mg/kg/injection, schedule: Q01DX005 (ip), vehicle: saline 92 % of control | [14] 91 % of control | [21] 99 % of control

Nc1ncnc(Nc2ccccc2Oc2ccccc2)n1
inactive: [22] 97 % of control | [23] 92 % of control | [24] 86 % of control

N=C1c2ccccc2-c2nc3ccccc3c(=O)n21
inactive: dose: 100.0 mg/kg/injection, schedule: Q04DX002 (ip), vehicle: saline 86 % of control | dose: 200.0 mg/kg/injection, schedule: Q04DX002 (ip), vehicle: saline 93 % of control | dose: 400.0 mg/kg/injection, schedule: Q04DX002 (ip), vehicle: saline 89 % of control

NNP(=O)(c1ccccc1)c1ccccc1
inactive: [7] 108 % of control | [8] 102 % of control | [9] 102 % of control

CC(=O)OC1OC(C2COC(C)(C)O2)C2OC(C)(C)OC12 (configuration not stated)
inactive: [22] 103 % of control | [23] 103 % of control | [24] 103 % of control

O=C(O)CC[S-].[Ag+]
inactive: dose: 50.0 mg/kg/injection, schedule: Q04DX003 (ip), vehicle: other 94 % of control | dose: 75.0 mg/kg/injection, schedule: Q01DX009 (ip), vehicle: other 98 % of control | dose: 100.0 mg/kg/injection, schedule: Q01DX001 (ip), vehicle: other 91 % of control | [25] 89 % of control | dose: 150.0 mg/kg/injection, schedule: Q01DX009 (ip), vehicle: other 98 % of control | dose: 200.0 mg/kg/injection, schedule: Q01DX001 (ip), vehicle: other 91 % of control | [26] 91 % of control | dose: 300.0 mg/kg/injection, schedule: Q01DX009 (ip), vehicle: other 109 % of control

CNCCO
inactive: [17] 97 % of control | [18] 96 % of control | [19] 92 % of control | [20] 98 % of control | dose: 400.0 mg/kg/injection, schedule: Q01DX009 (ip), vehicle: saline 97 % of control | [21] 102 % of control

CC(C)=C1C2C=CC1C1C(=O)OC(=O)C21 (configuration not stated)
inactive: dose: 12.5 mg/kg/injection, schedule: Q04DX003 (ip), vehicle: Klucel (hydroxypropylcellulose) (HPC) 107 % of control | dose: 25.0 mg/kg/injection, schedule: Q01DX009 (ip), vehicle: Klucel (hydroxypropylcellulose) (HPC) 98 % of control | [27] 96 % of control | [28] 95 % of control | [1] 103 % of control | [2] 94 % of control | [3] 100 % of control

C#CC(C)OCC(C)OC (configuration not stated)
inactive: dose: 25.0 mg/kg/injection, schedule: Q01DX009 (ip), vehicle: acetone 97 % of control | dose: 50.0 mg/kg/injection, schedule: Q01DX009 (ip), vehicle: acetone 103 % of control | dose: 100.0 mg/kg/injection, schedule: Q04DX003 (ip), vehicle: acetone 102 % of control

O=C1Nc2ccc(Cl)cc2C1=O
inactive: dose: 75.0 mg/kg/injection, schedule: Q01DX001 (ip), vehicle: saline 90 % of control | dose: 150.0 mg/kg/injection, schedule: Q01DX001 (ip), vehicle: saline 93 % of control | dose: 300.0 mg/kg/injection, schedule: Q01DX001 (ip), vehicle: saline 93 % of control

CCOC(=O)c1cnc(SC)nc1Nc1ccc(C)cc1
inactive: [11] 97 % of control | [13] 91 % of control | [14] 86 % of control

CCCCCCCCCCCCCCCCCC(=O)OCCC(C)CCCC(C)C (configuration not stated)
inactive: [25] 96 % of control | [26] 98 % of control | dose: 400.0 mg/kg/injection, schedule: Q04DX003 (ip), vehicle: other 88 % of control

CC1(C)N=C(N)N=C(N)N1c1cccc(/C=C/c2cccc([N+](=O)[O-])c2)c1
inactive: [28] 102 % of control | [15] 90 % of control | [16] 106 % of control

CCCN1C(=O)CCC1=O
inactive: dose: 75.0 mg/kg/injection, schedule: Q04DX003 (ip), vehicle: saline 109 % of control | dose: 150.0 mg/kg/injection, schedule: Q04DX003 (ip), vehicle: saline 97 % of control | dose: 300.0 mg/kg/injection, schedule: Q04DX003 (ip), vehicle: saline 101 % of control

CCOC(=O)c1[nH]c(C)c(/C=C/C(=O)O)c1C
inactive: [27] 98 % of control | [1] 95 % of control | [2] 106 % of control | [3] 101 % of control | [4] 98 % of control | [6] 98 % of control

CC(C)=CCC/C(C)=C\C=N\NC(N)=S
inactive: dose: 50.0 mg/kg/injection, schedule: Q01DX001 (ip), vehicle: carboxymethylcellulose (CMC) 96 % of control | [22] 104 % of control | [23] 104 % of control
